Laboratory results reported in US20240360082A1, “SUBSTITUTED PYRIDONE COMPOUNDS USEFUL TO TREAT ORTH[…]” (priority 2021, published 2024).
Like-named read-outs stand apart in the source and are kept apart here.

Target: influenza A virus minigenome (PB2, PB1, PA, NP proteins) (UniProt P04665)
Type: cell-based

Chain of influenza A virus minigenome (PB2, PB1, PA, NP proteins) (P04665 whole entry): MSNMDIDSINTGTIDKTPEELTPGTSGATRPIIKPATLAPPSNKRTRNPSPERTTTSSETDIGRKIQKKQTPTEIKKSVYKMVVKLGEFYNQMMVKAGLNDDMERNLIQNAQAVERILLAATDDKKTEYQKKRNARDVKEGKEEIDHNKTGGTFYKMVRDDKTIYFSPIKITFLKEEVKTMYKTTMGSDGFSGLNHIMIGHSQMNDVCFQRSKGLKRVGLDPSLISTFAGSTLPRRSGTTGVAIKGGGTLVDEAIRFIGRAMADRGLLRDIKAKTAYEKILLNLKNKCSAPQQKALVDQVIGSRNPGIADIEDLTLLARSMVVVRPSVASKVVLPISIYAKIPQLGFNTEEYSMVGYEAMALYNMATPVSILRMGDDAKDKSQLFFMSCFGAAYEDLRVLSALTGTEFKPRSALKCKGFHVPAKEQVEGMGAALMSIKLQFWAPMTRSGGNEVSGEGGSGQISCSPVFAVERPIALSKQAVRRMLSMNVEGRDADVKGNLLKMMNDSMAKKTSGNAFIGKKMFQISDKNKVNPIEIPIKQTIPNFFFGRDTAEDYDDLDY

SMILES	IC50 (read-out: RNP_ Hubei B IC50) [µM]	IC50 (read-out: RNP_Hubei B) [µM]
NC(=O)c1cc(-c2ccc(OCC3COCC(COCC(F)F)O3)cc2)c(C(F)(F)F)[nH]c1=O (single isomer, unassigned) [Example 369, 5-(4-((6-((2,2-difluoroethoxy)methyl)-1,4-dioxan-2-yl)methoxy)phenyl)-2-oxo-6-(trifluoromethyl)-1,2-dihydropyridine-3-carboxamide]	5 to 10	
COC(C)(C)COCC1COCC(COc2ccc(-c3cc(C(N)=O)c(=O)[nH]c3C(F)(F)F)cc2)O1 (single isomer, unassigned) [Example 370, 5-(4-((6-((2-methoxy-2-methylpropoxy)methyl)-1,4-dioxan-2-yl)methoxy)phenyl)-2-oxo-6-(trifluoromethyl)-1,2-dihydropyridine-3-carboxamide]	5 to 10	
COC(C)(C)COCC1COCC(COc2ccc(-c3cc(C(N)=O)c(=O)[nH]c3C(F)(F)F)cc2)O1 (single isomer, unassigned) [Example 371, 5-(4-((6-((2-methoxy-2-methylpropoxy)methyl)-1,4-dioxan-2-yl)methoxy)phenyl)-2-oxo-6-(trifluoromethyl)-1,2-dihydropyridine-3-carboxamide]	5 to 10	
NC(=O)c1cc(-c2ccc(OCC3COCC(COC(F)(F)F)O3)cc2)c(C(F)(F)F)[nH]c1=O (single isomer, unassigned) [Example 372, 2-oxo-5-(4-((6-((trifluoromethoxy)methyl)-1,4-dioxan-2-yl)methoxy)phenyl)-6-(trifluoromethyl)-1,2-dihydropyridine-3-carboxamide]	1 to 5	
NC(=O)c1cc(-c2ccc(OCC3COCC(COC(F)(F)F)O3)cc2)c(C(F)(F)F)[nH]c1=O (single isomer, unassigned) [Example 373, 2-oxo-5-(4-((6-((trifluoromethoxy)methyl)-1,4-dioxan-2-yl)methoxy)phenyl)-6-(trifluoromethyl)-1,2-dihydropyridine-3-carboxamide]	5 to 10	
NC(=O)c1cc(-c2ccc(OCC3COCC(Cn4cccc4)O3)cc2)c(C(F)(F)F)[nH]c1=O (single isomer, unassigned) [Example 374, 5-(4-((6-((1H-pyrrol-1-yl)methyl)-1,4-dioxan-2-yl)methoxy)phenyl)-2-oxo-6-(trifluoromethyl)-1,2-dihydropyridine-3-carboxamide]	5 to 10	
NC(=O)c1cc(-c2ccc(OCC3COCC(Cn4cccc4)O3)cc2)c(C(F)(F)F)[nH]c1=O (single isomer, unassigned) [Example 375, 5-(4-((6-((1H-pyrrol-1-yl)methyl)-1,4-dioxan-2-yl)methoxy)phenyl)-2-oxo-6-(trifluoromethyl)-1,2-dihydropyridine-3-carboxamide]	5 to 10	
NC(=O)c1cc(-c2ccc(OCC3COCC(Cn4cccn4)O3)cc2)c(C(F)(F)F)[nH]c1=O (single isomer, unassigned) [Example 376, 5-(4-((6-((1H-pyrazol-1-yl)methyl)-1,4-dioxan-2-yl)methoxy)phenyl)-2-oxo-6-(trifluoromethyl)-1,2-dihydropyridine-3-carboxamide]	5 to 10	
NC(=O)c1cc(-c2ccc(OCC3COCC(Cn4cccn4)O3)cc2)c(C(F)(F)F)[nH]c1=O (single isomer, unassigned) [Example 377, 5-(4-((6-((1H-pyrazol-1-yl)methyl)-1,4-dioxan-2-yl)methoxy)phenyl)-2-oxo-6-(trifluoromethyl)-1,2-dihydropyridine-3-carboxamide]	5 to 10	
CC1(OCC2COCC(COc3ccc(-c4cc(C(N)=O)c(=O)[nH]c4C(F)(F)F)cc3)O2)COC1 (single isomer, unassigned) [Example 378]	5 to 10	
CC1(OCC2COCC(COc3ccc(-c4cc(C(N)=O)c(=O)[nH]c4C(F)(F)F)cc3)O2)COC1 (single isomer, unassigned) [Example 379]	5 to 10	
COCC1OC(COc2ccc(-c3cc(C(N)=O)c(=O)[nH]c3C(F)(F)F)cc2)COC1C (single isomer, unassigned) [Example 392, 5-(4-((6-(methoxymethyl)-5-methyl-1,4-dioxan-2-yl)methoxy)phenyl)-2-oxo-6-(trifluoromethyl)-1,2-dihydropyridine-3-carboxamide]	5 to 10	
COCC1OC(COc2ccc(-c3cc(C(N)=O)c(=O)[nH]c3C(F)(F)F)cc2)COC1C (single isomer, unassigned) [Example 393, 5-(4-((6-(methoxymethyl)-5-methyl-1,4-dioxan-2-yl)methoxy)phenyl)-2-oxo-6-(trifluoromethyl)-1,2-dihydropyridine-3-carboxamide]	5 to 10	
COC[C@@H]1COC[C@H](COc2ccc(-c3cc(C(N)=O)c(=O)[nH]c3C(F)(F)F)cc2)O1 (single isomer, unassigned) [Example 400]	5 to 10	
COC[C@H]1COC[C@H](COc2ccc(-c3cc(C(N)=O)c(=O)[nH]c3C(F)(F)F)cc2)O1 (single isomer, unassigned) [Example 401]	5 to 10	
NC(=O)c1cc(-c2ccc(CN3CCOCC3)cc2)c(C(F)(F)F)[nH]c1=O [Example 1, 5-(4-(morpholinomethyl)phenyl)-2-oxo-6-(trifluoromethyl)-1,2-dihydropyridine-3-carboxamide]		25 to 50
NC(=O)c1cc(-c2ccc(CO)cc2)c(C(F)(F)F)[nH]c1=O [Example 2, 5-(4-(hydroxymethyl)phenyl)-2-oxo-6-(trifluoromethyl)-1,2-dihydropyridine-3-carboxamide]		25 to 50
NC(=O)c1cc(-c2ccc(O)cc2)c(C(F)(F)F)[nH]c1=O [Example 3, 5-(4-hydroxyphenyl)-2-oxo-6-(trifluoromethyl)-1,2-dihydropyridine-3-carboxamide]		25 to 50

SMILES	IC50 (read-out: RNP_ Hubei B IC50) [µM]	IC50 (read-out: RNP_Hubei B) [µM]
NC(=O)c1cc(-c2ccc(OCc3ccccc3)cc2)c(C(F)(F)F)[nH]c1=O [Example 4, 5-(4-(benzyloxy)phenyl)-2-oxo-6-(trifluoromethyl)-1,2-dihydropyridine-3-carboxamide]		5 to 10
NC(=O)c1cc(-c2ccc(CN3CCCC3)cc2)c(C(F)(F)F)[nH]c1=O [Example 5, 2-oxo-5-(4-(pyrrolidin-1-ylmethyl)phenyl)-6-(trifluoromethyl)-1,2-dihydropyridine-3-carboxamide]		25 to 50
NC(=O)c1cc(-c2ccc(Oc3ccccc3)cc2)c(C(F)(F)F)[nH]c1=O [Example 6, 2-oxo-5-(4-phenoxyphenyl)-6-(trifluoromethyl)-1,2-dihydropyridine-3-carboxamide]		1 to 5
NC(=O)c1cc(-c2cccc(N)c2)c(C(F)(F)F)[nH]c1=O [Example 7, 5-(3-aminophenyl)-2-oxo-6-(trifluoromethyl)-1,2-dihydropyridine-3-carboxamide]		25 to 50
NC(=O)c1cc(-c2cccc(O)c2)c(C(F)(F)F)[nH]c1=O [Example 9, 5-(3-hydroxyphenyl)-2-oxo-6-(trifluoromethyl)-1,2-dihydropyridine-3-carboxamide]		25 to 50
COCOc1ccc(-c2cc(C(N)=O)c(=O)[nH]c2C(F)(F)F)cc1 [Example 13, 5-(4-(methoxymethoxy)phenyl)-2-oxo-6-(trifluoromethyl)-1,2-dihydropyridine-3-carboxamide]		25 to 50
COCc1ccc(-c2cc(C(N)=O)c(=O)[nH]c2C(F)(F)F)cc1 [Example 15, 5-(4-(methoxymethyl)phenyl)-2-oxo-6-(trifluoromethyl)-1,2-dihydropyridine-3-carboxamide]		25 to 50
NC(=O)c1cc(-c2ccccc2)c(C(F)(F)F)[nH]c1=O [Example 16, 2-oxo-5-phenyl-6-(trifluoromethyl)-1,2-dihydropyridine-3-carboxamide]		25 to 50
CC(C)Oc1ccc(-c2cc(C(N)=O)c(=O)[nH]c2C(F)(F)F)cc1 [Example 17, 5-(4-isopropoxyphenyl)-2-oxo-6-(trifluoromethyl)-1,2-dihydropyridine-3-carboxamide]		10 to 25
COc1ccc(-c2cc(C(N)=O)c(=O)[nH]c2C(F)(F)F)cc1Cl [Example 18, 5-(3-chloro-4-methoxyphenyl)-2-oxo-6-(trifluoromethyl)-1,2-dihydropyridine-3-carboxamide]		10 to 25
N#CCc1ccc(-c2cc(C(N)=O)c(=O)[nH]c2C(F)(F)F)cc1 [Example 20, 5-(4-(cyanomethyl)phenyl)-2-oxo-6-(trifluoromethyl)-1,2-dihydropyridine-3-carboxamide]		25 to 50
CC1COCCN1Cc1ccc(-c2cc(C(N)=O)c(=O)[nH]c2C(F)(F)F)cc1 (centres unmarked) [Example 27, 5-(4-((3-methylmorpholino)methyl)phenyl)-2-oxo-6-(trifluoromethyl)-1,2-dihydropyridine-3-carboxamide]		10 to 25
NC(=O)c1cc(-c2ccc(CN3CCSCC3)cc2)c(C(F)(F)F)[nH]c1=O [Example 28, 2-oxo-5-(4-(thiomorpholinomethyl)phenyl)-6-(trifluoromethyl)-1,2-dihydropyridine-3-carboxamide]		1 to 5
CC1CN(Cc2ccc(-c3cc(C(N)=O)c(=O)[nH]c3C(F)(F)F)cc2)CCO1 (centres unmarked) [Example 29, 5-(4-((2-methylmorpholino)methyl)phenyl)-2-oxo-6-(trifluoromethyl)-1,2-dihydropyridine-3-carboxamide]		10 to 25
NC(=O)c1cc(-c2ccc(CN3CCOCC34CC4)cc2)c(C(F)(F)F)[nH]c1=O [Example 30, 5-(4-((7-oxa-4-azaspiro[2.5]octan-4-yl)methyl)phenyl)-2-oxo-6-(trifluoromethyl)-1,2-dihydropyridine-3-carboxamide]		5 to 10
NC(=O)c1cc(-c2ccc(CN3C[C@H]4CC[C@@H](C3)O4)cc2)c(C(F)(F)F)[nH]c1=O [Example 31, 5-(4-(((1R,5S)-8-oxa-3-azabicyclo[3.2.1]octan-3-yl)methyl)phenyl)-2-oxo-6-(trifluoromethyl)-1,2-dihydropyridine-3-carboxamide]		1 to 5
NC(=O)c1cc(-c2ccc(CN3CCOCC3c3cccnc3)cc2)c(C(F)(F)F)[nH]c1=O (centres unmarked) [Example 32, 2-oxo-5-(4-((3-(pyridin-3-yl)morpholino)methyl)phenyl)-6-(trifluoromethyl)-1,2-dihydropyridine-3-carboxamide]		25 to 50
